Test results published in patent US20250122146A1, “COMPOUNDS FOR REDUCING NEUROINFLAMMATION” (THE SCRIPPS RESEARCH INSTITUTE, priority 2021, published 2025).
“Also recorded” adds a separate entry of the source.

Assays:
[1] = system: human iPSC-derived microglia (hiMG); assay: IL-1β release (NLRP3 inflammasome activation) from hiMG exposed to oligomeric Aβ and αSyn with their antibodies, ELISA; assay type: cell-based; details: oligomeric Aβ (~500 nM oligomers) + oligomeric αSyn (~100 nM) with anti-αSyn & anti-Aβ antibodies; carnosic acid 0.1-10 μM; n=3 per group
Protocol: (§1) Proinflammatory microglial activation. Following a protocol adapted from D. Trudler et al. (2021), human induced pluripotent stem cell (hiPSC)-derived microglia (hiMG) were plated at a concentration of 1×10^6 cells/mL. 16 h before the experiment the cell medium was changed to IMDM (no supplements added). Carnosic acid (CA, purity >99%) was added 16 hours before the experiment, at a concentration of 2 μM. Recombinant αSyn oligomers (100 nM) and oligomeric Aβ (10 μM) were incubated with 2.5 μg/mL of their respective antibodies for 1 h prior to adding to hiMG for additional 6 hours. Media was collected and cytokine levels, IL-1β or tumor necrosis factor (TNF), were measured by ELISA per the manufacturer's instructions.
(§2) Carnosic Acid Reduces Neuroinflammation Induced by Antibody-Misfolded Protein Complex. NLRP3 inflammasome activation was assessed by measuring the release of the proinflammatory cytokine interleukin-1β (IL-1β) from hiMG exposed to (A) oligomeric Aβ (500 nM oligomers) and low concentrations of oligomeric αSyn (100 nM), (B) Aβ and αSyn with their cognate human antibodies (anti-Aβ and anti-αSyn, respectively), and (C) same as (B) with carnosic acid.

[2] = system: human iPSC-derived microglia (hiMG); assay: TNF release from hiMG exposed to oligomeric Aβ and αSyn with their antibodies, ELISA; assay type: cell-based; details: oligomeric Aβ (~750 nM oligomers) + oligomeric αSyn (~100 nM) with anti-αSyn & anti-Aβ antibodies; carnosic acid 2 μM; n=3 per group
Protocol: as §1, §2

[3] = system: Nrf2/ARE pathway; details: literature statement; cited from earlier work
[4] = system: neural damage / oxidative stress; details: literature statement; cited from earlier work
[5] = system: HSF-1 and Nrf2 transcription pathways; details: literature statement (Satoh et al. 2015); cited from earlier work

Row | SMILES | IL-1β release from hiMG [1] | TNF release from hiMG [2] | activation of the Nrf2/ARE pathway [3] | neuroprotective effect [4] | activation of HSF-1 and Nrf2 transcription pathways [5]
1 | CC(C)c1cc2c(c(O)c1O)[C@@]1(C(=O)O)CCCC(C)(C)[C@@H]1CC2 [Carnosic acid, carnosic acid] | significantly reduced IL-1β release; also recorded: reduction in IL-1β | significantly reduced TNF release; also recorded: significantly reduced the type of inflammation | activates the Nrf2/ARE pathway | affording protection against neural damage | activates both the HSF-1 and Nrf2 transcription pathways
2 | C=C1CC[C@@H]2C(C)(C)CCCC2(C)C1Cc1cc(O)ccc1O (stereo partly shown) [Zonarol, zonarol] | – | – | activate the Nrf2/ARE pathway | exert neuroprotective effects against oxidative stress | –
